Results on 1 compound are retold here after patent publication US20240174631A1, “COMPOUNDS, COMPOSITIONS, AND METHODS FOR MODULATING FGF ACTIVITY” (Recovery Therapeutics, Inc., priority 2021, published 2024).

A short description of data set [1]: Body weight pre- and post-MCAO. The class given is in vivo. The conditions noted are these: rat MCAO; 10 mg/kg i.v. on Day 1, 2 and 3 after MCAO. On the procedure: The rats were randomly assigned into two groups of ten each. Each group was injected intravenously (i.v.) with 2 ml/kg Compound 2 at 10 mg/kg or vehicle (18% Cremophor RH40 and 10% DMSO in 5% dextrose solution (D5WW)) on Day 1, 2, and 3 after MCAO. Day 0 is the day of the MCAO, and the days after the MCAO are numbered consecutively (Day 1, Day 2, Day 3, etc.) D-pre represents the day prior to the MCAO.
Typically, after an initial rapid rise, there is a continued slow, steady, and partial improvement in sensorimotor function (as measured by forelimb and hindlimb placing and body swing tests) during the first three weeks after stroke. […] The normal rise in body weight following surgery was not affected by treatment with Compound 2.

Another data set has as its target FGFR1 (Homo sapiens, UniProt P11362). Kind of data set: Thermal shift assay (TSA) of FGFR1/FGF2 complex, FGFR1 melting peak. Details: made in house; host or cells: Escherichia coli BL21 (DE3) Star. Type of data set: binding. The source says:
TSA was utilized to biophysically characterize the recombinant human FGFR1/FGF2 complex in the presence or absence of compounds. The assay functions by protein denaturation over a temperature gradient. During protein unfolding, exposed hydrophobic regions bind a dye and fluoresce due to solvent relaxation effects. Changes in the melting temperature of the protein complex in the presence of each compound were monitored and compounds were screened/ranked using this method.
Cell pellets were thawed and resuspend in 100 mL of FGFR1 Lysis Buffer per 9 g of pellet (20 mM Tris-HCl pH 8.0, 500 mM NaCl, 1 mM dithiothreitol) by stirring at 4° C. for 1 hour. Cells were lysed in 3 cycles on/off for 3 minutes each at 4° C. via sonication followed by centrifugation for 30 minutes at 16,000 RPM in rotor F20 at 4° C., after which the supernatant was discarded. This process was then repeated twice. The pellets were resuspended in 150 mL FGFR1 solubilization buffer (8 M urea, 20 mM Tris-HCL pH 8.0, 150 mM NaCl, 1 mM dithiothreitol) by stirring for 1 hour at 4° C., and the solution was subjected to centrifugation for 30 minutes at 16,000 RPM in rotor F20 at 4° C. The pellets were discarded, and the supernatant was filtered through a […] polyethersylfone (PES) filter. After filtration, the supernatant was added dropwise to 1 L FGFR1 refolding buffer (20 mM Tris-HCl pH 8.0, 150 mM NaCl, 0.5 M L-arginine, 25 mM MgCl2) using a glass column. Protein was concentrated by tangential flow from 1 L to 100 mL and dialyzed against 1 L of FGFR1 Dialysis Buffer (20 mM Tris-HCl pH 8.0, 150 mM NaCl, 25 mM MgCl2) for 2 hours at 4° C., and the dialysis step was repeated with fresh buffer for an additional 2 hours at 4° C. The material thus obtained was then centrifuged at 4000 RPM in Eppendorf tabletop centrifuge for 5 minutes and loaded onto 2×5 mL heparin columns. The columns were washed extensively (20 CV) using FGFR1 Heparin Buffer A (20 mM Tris-HCl pH 8.0, 150 mM NaCl, 25 mM MgCl2) and then eluted using FGFR1 Heparin Buffer B (20 mM Tris-HCl pH 8.0, 1.5 M NaCl, 25 mM MgCl2). A large peak was recovered that was >95% pure by SDS-PAGE analysis gel (Expected Mw: 25 KDa). The protein was collected and diluted in 20 mM Tris-HCl pH 8.0, 25 mM MgCl2 buffer in order to reach a NaCl concentration of 150 mM. The FGFR1 thus obtained was concentrated and stored at −80° C.
Thawed aliquots of purified FGF2 (1.0 mg/mL) and FGFR1 (1.6 mg/mL) proteins were mixed in a 1:1 molar ratio (64 μM: 64 μM) on ice for 30 min at 4° C. and plated prior to the thermal shift assay (TSA). Complex formation was verified by loading the complexed material on a size exclusion column (superdex 300GL S200) and observing the monodisperse peak corresponding to the FGF2/FGFR1 complex (˜40 kDa). Compounds of the invention were screened in dose response format (0-100 μM) with the FGF2/FGFR1 complex in triplicates. FGF2/FGFR1/compound complexes were mixed in a 1000:1 ratio with Sypro Orange dye (Sigma-Aldrich). The samples were processed using a Bio-Rad CFX C96 Touch quantitative polymerase chain reaction and run using the FRET assay settings with a heating ramp of 0.3° C./s cycling from 4 to 100° C. Data analysis was performed using the Bio-Rad CFX Manager Software (version 3.1, Bio-Rad) and changes in the melting temperature (Tm) of the complex in the presence of each compound were monitored. The results are shown in Tables 2 and 3 below and also in FIG. 1 (for Compound 2).

FGFR1, sequence (P11362 142-365 limits assumed): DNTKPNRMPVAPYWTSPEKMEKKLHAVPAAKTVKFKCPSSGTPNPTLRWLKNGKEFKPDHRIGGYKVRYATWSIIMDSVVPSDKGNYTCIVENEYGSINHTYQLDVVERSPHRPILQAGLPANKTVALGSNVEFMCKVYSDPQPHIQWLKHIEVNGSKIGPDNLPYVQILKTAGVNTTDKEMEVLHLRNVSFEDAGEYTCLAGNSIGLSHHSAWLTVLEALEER
FGFR1, sequence (P09038 156-288 partner limits assumed): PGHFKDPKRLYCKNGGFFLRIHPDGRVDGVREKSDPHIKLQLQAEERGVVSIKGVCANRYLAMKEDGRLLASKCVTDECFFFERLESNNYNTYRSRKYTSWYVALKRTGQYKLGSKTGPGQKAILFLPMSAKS

Usually ΔTm stands for the change in melting temperature against a reference sample. `CCN(CC)c1ccc2c(c1)CCN(C1CCN(C(c3ccccc3)c3ccccc3)CC1)C2` [Compound 2, 2-(1-benzhydrylpiperidin-4-yl)-N,N-diethyl-1,2,3,4-tetrahydroisoquinolin-6-amine]: in data set [1], the “rise in body weight following surgery” value was “not affected”. The ΔTm at 2 µM on FGFR1 (2 μM compound, FGF2/FGFR1 complex) came out at 4 °C. For the same compound, the ΔTm at 10 µM at FGFR1 (10 μM compound, FGF2/FGFR1 complex) was determined as 4.5 °C. Also, the “shift of the melting curve of the FGF-2/FGFR1 complex (TSA)” value on FGFR1 (10 μM, purified FGF-2/FGFR1 complex, FIG. 1) is reported as “increased stability of the complex”.
